Drawing on BindingDB's records for doi:10.7270/Q2R78CMH (Sanford-Burnham Center for Chemical Genomics, 2008), this text covers EC50 for six compounds.

By EC50 is commonly meant the concentration giving half of the maximal effect. Lower therefore signals an effect from little substance.

The target of this assay is T1, Bcl-2-like protein 10 (Homo sapiens, UniProt Q9HD36).
T1 sequence (Q9HD36 whole entry): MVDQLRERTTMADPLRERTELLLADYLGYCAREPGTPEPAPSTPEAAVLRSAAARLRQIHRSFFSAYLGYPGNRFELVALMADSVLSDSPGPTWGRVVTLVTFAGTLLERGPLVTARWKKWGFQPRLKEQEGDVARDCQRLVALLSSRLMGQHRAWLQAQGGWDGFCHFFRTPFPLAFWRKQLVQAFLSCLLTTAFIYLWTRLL
The assay can be described thus: EC50 profiling of BCL2L10 inhibition in a biochemical TR3-derived FP format (AID 1243).
On to `C=c1c(C#N)c2[nH]c(N)c(C#N)c(C)c-2c1=Cc1ccc(-c2ccc(C(=O)O)c(Cl)c2)o1`, for which the concentration giving a half-maximal response (EC50) was 1.65 µM.

Turning to `O=C(O)c1cccc(-c2ccc(CN=Nc3ccc([N+](=O)[O-])cn3)o2)c1`, a half-maximal effect (EC50) was put at 9.64 µM. In the case of `Clc1ccc(C2CC(c3ccccc3)=Nc3ncnn32)cc1` (stereo unspecified) [7-(4-chlorophenyl)-5-phenyl-1,7-dihydro-[1,2,4]triazolo[1,5-a]pyrimidine] it was 14.2 µM.

Take `COc1ccccc1NC(=O)C1=C(C)N=C(SCC(=O)c2ccc(Br)cc2)C(C#N)C1c1ccco1` (stereo unspecified) [BIM-0025022.P001]: the EC50 was found to be 6.24 µM. In the case of `O=C1c2ccccc2C(O)C12N=Nc1n[nH]c(=S)n1N2` (stereo unspecified) [BIM-0026580.P001] it was 23.8 µM; in that of `O=C1C=CC(=O)C(C(C=NCc2ccccc2)[N+](=O)[O-])=C1` (stereo unspecified) [BIM-0048185.P001], 5.7 µM.
